Values of other authors in patent US8367605B2, “Copolymer-1 improvements in compositions of copolymers” (Yeda Research and Development Co. Ltd., priority 1994, dated 2013).

Key:
[1] = system: patients with the exacerbating-remitting form of multiple sclerosis; conditions: daily injections; N. Engl. J. Med. [1987]317:408
[2] = system: experimental autoimmune encephalomyelitis (EAE); conditions: Eur. J. Immunol. [1971]1:242; U.S. Pat. No. 3,849,550

Substance: copolymer-1
- disability status versus control patients [1]: smaller increases in their disability status
- exacerbations versus control patients [1]: fewer exacerbations
- effect on EAE [2]: suppress EAE
